Experimental data from ChEMBL document CHEMBL1909046, “DrugMatrix in vitro pharmacology data”.

Assays:
[1] = biological target: T1, Muscarinic acetylcholine receptor M5 (Homo sapiens, UniProt P08912); assay type: cell membranes, CHO-K1, Membrane; conditions: cho-k1; also: in other assays of this panel Not Active means under 50% inhibition at 10 µM
T1 sequence (P08912 whole entry): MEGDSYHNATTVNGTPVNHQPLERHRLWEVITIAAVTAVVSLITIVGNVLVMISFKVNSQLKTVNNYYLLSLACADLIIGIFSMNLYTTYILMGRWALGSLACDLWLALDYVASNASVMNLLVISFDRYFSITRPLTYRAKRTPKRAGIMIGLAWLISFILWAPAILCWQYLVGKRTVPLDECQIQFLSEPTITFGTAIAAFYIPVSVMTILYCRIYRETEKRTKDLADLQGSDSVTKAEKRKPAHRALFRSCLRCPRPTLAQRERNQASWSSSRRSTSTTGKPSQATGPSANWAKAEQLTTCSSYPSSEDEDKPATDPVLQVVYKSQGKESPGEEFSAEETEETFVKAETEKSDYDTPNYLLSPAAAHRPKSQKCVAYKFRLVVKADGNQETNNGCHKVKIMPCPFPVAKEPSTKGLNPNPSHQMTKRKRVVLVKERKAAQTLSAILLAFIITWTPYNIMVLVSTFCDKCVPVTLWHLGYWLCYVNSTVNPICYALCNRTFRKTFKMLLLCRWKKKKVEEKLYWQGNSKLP

Adenosine receptor A3 = biological target: T2, Adenosine receptor A3 (Homo sapiens, UniProt P0DMS8); assay type: cell membranes, CHO-K1, Membrane; conditions: cho-k1;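 also: radioligand binding assay with AB-MECA serving as the labeled ligand; in other assays of this panel Not Active means under 50% inhibition at 10 µM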
T2 sequence (P0DMS8 whole entry): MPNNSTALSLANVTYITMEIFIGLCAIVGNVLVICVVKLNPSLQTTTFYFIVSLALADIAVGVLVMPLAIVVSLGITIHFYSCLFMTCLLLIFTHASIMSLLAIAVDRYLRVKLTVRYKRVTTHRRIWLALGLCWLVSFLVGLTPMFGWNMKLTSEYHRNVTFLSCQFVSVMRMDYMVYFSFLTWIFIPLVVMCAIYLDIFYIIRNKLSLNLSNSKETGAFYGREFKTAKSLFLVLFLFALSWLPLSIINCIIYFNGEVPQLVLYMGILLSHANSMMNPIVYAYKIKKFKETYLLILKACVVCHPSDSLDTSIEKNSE

[2] = biological target: Aldo-keto reductase family 1 member B1 (Rattus norvegicus, UniProt P07943); assay type: tissue-based, Lens of camera-type eye;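 also: inhibition of aldose reductase enzyme activity, measured with DL-glyceraldehyde as the substrate; in other assays of this panel Not Active means under 50% inhibition at 10 µM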
[3] = biological target: Beta-2 adrenergic receptor (Homo sapiens, UniProt P07550); assay: DRUGMATRIX: Adrenergic beta2 radioligand binding (ligand: [3H] CGP-12177); assay type: cell membranes, Membrane; conditions: cho; Not Active = under 50% inhibition at 10 µM
[4] = DRUGMATRIX: Phosphodiesterase PDE3 enzyme inhibition (substrate: [3H]cAMP + cAMP); assay type: tissue-based, Homo sapiens; conditions: platelet; Not Active = under 50% inhibition at 10 µM
[5] = DRUGMATRIX: GABAA, Chloride Channel, TBOB radioligand binding (ligand: [3H] TBOB); assay type: cell membranes, Rattus norvegicus, Wistar, Cerebral cortex, Membrane; conditions: Not Active = under 50% inhibition at 10 µM
[6] = biological target: T3, 5-hydroxytryptamine receptor 1A (Rattus norvegicus, UniProt P19327); assay type: cell membranes, CHO-K1, Membrane; conditions: cho-k1; also: in other assays of this panel Not Active means under 50% inhibition at 10 µM
T3 sequence (P19327 whole entry): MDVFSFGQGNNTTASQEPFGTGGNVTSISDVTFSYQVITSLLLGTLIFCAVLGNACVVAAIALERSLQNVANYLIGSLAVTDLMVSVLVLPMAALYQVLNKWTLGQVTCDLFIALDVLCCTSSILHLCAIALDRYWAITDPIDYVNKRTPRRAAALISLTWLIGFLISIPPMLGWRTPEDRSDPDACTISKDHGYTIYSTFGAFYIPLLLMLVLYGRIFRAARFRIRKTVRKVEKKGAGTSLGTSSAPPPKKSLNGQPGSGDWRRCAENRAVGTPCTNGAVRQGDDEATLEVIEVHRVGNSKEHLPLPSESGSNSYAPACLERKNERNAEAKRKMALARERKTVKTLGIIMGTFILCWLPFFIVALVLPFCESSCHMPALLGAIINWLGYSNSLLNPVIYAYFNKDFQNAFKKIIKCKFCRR

Melanocortin receptor 3 = Melanocortin receptor 3 (Homo sapiens, UniProt P41968); assay type: cell membranes, Membrane; conditions: hek293; also: in other assays of this panel Not Active means under 50% inhibition at 10 µM
[7] = biological target: Tyrosine-protein kinase Fyn (Homo sapiens, UniProt P06241); assay: biochemical; assay type: cell-based, Insect cells; conditions: insect cells
[8] = biological target: Vascular endothelial growth factor receptor 1 (Homo sapiens, UniProt P17948); assay type: cell-based; conditions: huvec; also: in other assays of this panel Not Active means under 50% inhibition at 10 µM
[9] = DRUGMATRIX: ATPase, Na+/K+ enzyme inhibition (substrate: ATP); assay type: tissue-based, Sus scrofa, Heart; conditions: Not Active = under 50% inhibition at 10 µM
[10] = biological target: T4, Cysteinyl leukotriene receptor 1 (Homo sapiens, UniProt Q9Y271); assay type: cell membranes, CHO-K1, Membrane; conditions: cho-k1; also: in other assays of this panel Not Active means under 50% inhibition at 10 µM
T4 sequence (Q9Y271 whole entry): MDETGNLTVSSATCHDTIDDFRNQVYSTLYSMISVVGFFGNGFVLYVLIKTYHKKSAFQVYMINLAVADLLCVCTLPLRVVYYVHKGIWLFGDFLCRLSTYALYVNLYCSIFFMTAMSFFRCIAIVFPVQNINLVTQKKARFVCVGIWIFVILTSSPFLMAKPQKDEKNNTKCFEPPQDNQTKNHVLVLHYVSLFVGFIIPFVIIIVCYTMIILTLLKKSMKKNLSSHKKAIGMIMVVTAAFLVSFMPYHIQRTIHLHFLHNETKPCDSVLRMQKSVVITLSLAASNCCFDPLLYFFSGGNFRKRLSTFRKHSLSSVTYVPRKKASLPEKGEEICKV

[11] = biological target: Kappa-type opioid receptor (Homo sapiens, UniProt P41145); assay: DRUGMATRIX: Opiate kappa (OP2, KOP) radioligand binding (ligand: [3H] Diprenorphine); assay type: cell membranes, HEK293, Membrane; conditions: hek293; Not Active = under 50% inhibition at 10 µM
[12] = biological target: Protein kinase C alpha type (Homo sapiens, UniProt P17252); assay type: cell-based; conditions: sf9
Leukotriene C4 synthase = biological target: T5, Leukotriene C4 synthase (Cavia porcellus, UniProt A6XA80); assay: biochemical; assay type: tissue-based, Lung
T5 sequence (A6XA80 whole entry): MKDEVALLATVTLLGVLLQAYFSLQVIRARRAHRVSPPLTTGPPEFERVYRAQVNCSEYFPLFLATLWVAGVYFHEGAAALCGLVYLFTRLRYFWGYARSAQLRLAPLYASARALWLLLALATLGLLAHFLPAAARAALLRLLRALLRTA

Carbonic anhydrase 2 = Carbonic anhydrase 2 (Homo sapiens, UniProt P00918); assay: DRUGMATRIX: Carbonic Anhydrase II enzyme inhibition (substrate: 4-Nitrophenyl acetate (4-NPA)); assay type: tissue-based, Erythrocyte; conditions: erythrocyte; Not Active = under 50% inhibition at 10 µM
[13] = DRUGMATRIX: Potassium Channel [KATP] radioligand binding (ligand: [3H] Glyburide); assay type: cell membranes, Membrane; conditions: hit-t15; Not Active = under 50% inhibition at 10 µM

Chain of Tyrosine-protein kinase Fyn (P06241 whole entry): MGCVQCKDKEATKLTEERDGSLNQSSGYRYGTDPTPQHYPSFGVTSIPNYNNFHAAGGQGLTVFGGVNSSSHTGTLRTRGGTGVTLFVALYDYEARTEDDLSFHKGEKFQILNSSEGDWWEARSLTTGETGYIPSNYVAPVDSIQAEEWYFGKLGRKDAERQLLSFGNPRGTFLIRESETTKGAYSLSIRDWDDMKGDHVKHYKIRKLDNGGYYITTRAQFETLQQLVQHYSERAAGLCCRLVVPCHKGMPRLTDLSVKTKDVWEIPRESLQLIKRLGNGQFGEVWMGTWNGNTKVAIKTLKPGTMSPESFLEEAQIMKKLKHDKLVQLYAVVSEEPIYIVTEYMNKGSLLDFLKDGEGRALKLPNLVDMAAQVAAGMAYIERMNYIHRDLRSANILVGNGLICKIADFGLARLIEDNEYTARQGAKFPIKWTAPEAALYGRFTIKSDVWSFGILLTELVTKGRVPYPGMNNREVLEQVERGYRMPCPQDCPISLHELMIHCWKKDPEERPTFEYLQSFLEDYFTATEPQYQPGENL
Chain of Kappa-type opioid receptor (P41145 whole entry): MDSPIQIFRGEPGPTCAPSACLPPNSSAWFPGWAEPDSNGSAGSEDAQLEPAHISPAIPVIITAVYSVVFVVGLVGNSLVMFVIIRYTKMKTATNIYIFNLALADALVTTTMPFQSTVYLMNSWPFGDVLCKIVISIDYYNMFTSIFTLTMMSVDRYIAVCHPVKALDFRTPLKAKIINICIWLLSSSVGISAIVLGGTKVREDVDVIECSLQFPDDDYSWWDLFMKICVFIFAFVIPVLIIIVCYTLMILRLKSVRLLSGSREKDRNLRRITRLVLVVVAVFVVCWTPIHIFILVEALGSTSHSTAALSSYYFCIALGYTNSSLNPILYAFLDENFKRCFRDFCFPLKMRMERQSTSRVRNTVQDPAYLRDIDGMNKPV
Chain of Vascular endothelial growth factor receptor 1 (P17948 whole entry): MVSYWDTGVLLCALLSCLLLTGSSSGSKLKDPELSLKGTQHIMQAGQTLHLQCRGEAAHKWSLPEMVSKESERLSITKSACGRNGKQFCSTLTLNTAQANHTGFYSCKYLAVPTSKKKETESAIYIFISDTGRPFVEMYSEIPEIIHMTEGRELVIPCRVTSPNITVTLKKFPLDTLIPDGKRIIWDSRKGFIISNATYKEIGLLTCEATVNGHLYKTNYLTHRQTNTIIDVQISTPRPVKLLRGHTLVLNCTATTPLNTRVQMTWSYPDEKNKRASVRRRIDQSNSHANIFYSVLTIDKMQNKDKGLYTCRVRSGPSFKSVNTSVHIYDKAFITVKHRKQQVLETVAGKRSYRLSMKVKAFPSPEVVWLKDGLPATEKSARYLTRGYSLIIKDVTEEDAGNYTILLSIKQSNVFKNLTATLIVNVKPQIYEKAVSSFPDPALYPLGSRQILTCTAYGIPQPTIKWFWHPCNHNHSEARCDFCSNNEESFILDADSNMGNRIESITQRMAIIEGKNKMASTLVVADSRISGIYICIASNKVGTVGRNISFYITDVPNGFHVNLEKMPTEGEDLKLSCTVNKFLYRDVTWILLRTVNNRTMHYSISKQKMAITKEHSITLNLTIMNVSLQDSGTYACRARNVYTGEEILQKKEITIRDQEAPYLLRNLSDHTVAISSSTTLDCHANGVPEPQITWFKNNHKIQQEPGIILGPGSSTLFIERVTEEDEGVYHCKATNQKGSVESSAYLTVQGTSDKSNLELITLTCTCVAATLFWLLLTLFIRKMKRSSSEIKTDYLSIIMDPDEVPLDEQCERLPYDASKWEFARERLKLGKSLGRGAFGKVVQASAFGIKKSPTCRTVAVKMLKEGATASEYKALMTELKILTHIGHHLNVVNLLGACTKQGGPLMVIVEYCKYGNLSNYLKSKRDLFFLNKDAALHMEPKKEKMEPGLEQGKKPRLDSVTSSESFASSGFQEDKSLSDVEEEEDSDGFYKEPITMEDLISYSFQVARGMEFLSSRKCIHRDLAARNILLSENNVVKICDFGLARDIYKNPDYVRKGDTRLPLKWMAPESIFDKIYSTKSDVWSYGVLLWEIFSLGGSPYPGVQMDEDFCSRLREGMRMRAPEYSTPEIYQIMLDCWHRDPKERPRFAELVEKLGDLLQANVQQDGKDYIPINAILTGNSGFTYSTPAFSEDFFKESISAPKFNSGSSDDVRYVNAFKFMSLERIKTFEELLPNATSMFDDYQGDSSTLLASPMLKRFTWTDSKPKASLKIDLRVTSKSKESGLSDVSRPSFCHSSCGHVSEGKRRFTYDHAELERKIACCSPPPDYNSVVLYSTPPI
Chain of Melanocortin receptor 3 (P41968 whole entry): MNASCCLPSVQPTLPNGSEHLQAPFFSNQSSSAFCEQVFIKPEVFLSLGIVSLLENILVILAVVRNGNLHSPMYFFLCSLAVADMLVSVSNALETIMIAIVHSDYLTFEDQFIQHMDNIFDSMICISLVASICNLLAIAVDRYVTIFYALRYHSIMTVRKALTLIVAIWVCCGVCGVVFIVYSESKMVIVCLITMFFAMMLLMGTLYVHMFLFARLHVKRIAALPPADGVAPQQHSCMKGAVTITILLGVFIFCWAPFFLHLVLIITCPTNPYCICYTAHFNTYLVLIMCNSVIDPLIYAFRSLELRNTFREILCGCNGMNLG
Chain of Beta-2 adrenergic receptor (P07550 whole entry): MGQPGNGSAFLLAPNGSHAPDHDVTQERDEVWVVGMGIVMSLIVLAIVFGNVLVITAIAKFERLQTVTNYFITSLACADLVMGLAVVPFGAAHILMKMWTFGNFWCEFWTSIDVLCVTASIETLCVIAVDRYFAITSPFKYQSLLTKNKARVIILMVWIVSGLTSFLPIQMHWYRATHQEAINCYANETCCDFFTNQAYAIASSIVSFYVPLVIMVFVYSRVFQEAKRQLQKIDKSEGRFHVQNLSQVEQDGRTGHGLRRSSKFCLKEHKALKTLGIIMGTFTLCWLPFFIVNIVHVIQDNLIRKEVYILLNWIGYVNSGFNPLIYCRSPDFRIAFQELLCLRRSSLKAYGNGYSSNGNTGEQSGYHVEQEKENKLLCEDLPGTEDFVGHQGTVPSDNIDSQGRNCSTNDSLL

CC(C)[C@H](N)C(=O)OCCOCn1cnc2c(=O)nc(N)[nH]c21 [VALACYCLOVIR]
Not Active: IC50 [1] | IC50 (Adenosine receptor A3) | IC50 [2] | IC50 [3] | IC50 [4] | Ki [4] | IC50 [5] | Ki [5] | IC50 [6] | IC50 (Melanocortin receptor 3) | IC50 [7] | IC50 [8] | IC50 [9] | Ki [9] | IC50 [10] | IC50 [11] | IC50 [12] | IC50 (Leukotriene C4 synthase) | IC50 (Carbonic anhydrase 2) | IC50 [13] | Ki [13]

CN[C@H](CC(C)C)C(=O)N[C@H]1C(=O)N[C@@H](CC(N)=O)C(=O)N[C@H]2C(=O)N[C@H]3C(=O)N[C@H](C(=O)N[C@H](C(=O)O)c4cc(O)cc(O)c4-c4cc3ccc4O)[C@H](O)c3ccc(c(Cl)c3)Oc3cc2cc(c3O[C@@H]2O[C@H](CO)[C@@H](O)[C@H](O)[C@H]2O[C@H]2C[C@](C)(N)[C@H](O)[C@H](C)O2)Oc2ccc(cc2Cl)[C@H]1O [VANCOMYCIN]
Not Active: IC50 [1] | IC50 (Adenosine receptor A3) | IC50 [2] | IC50 [3] | IC50 [4] | Ki [4] | IC50 [5] | Ki [5] | IC50 [6] | IC50 (Melanocortin receptor 3) | IC50 [7] | IC50 [8] | IC50 [9] | Ki [9] | IC50 [10] | IC50 [11] | IC50 [12] | IC50 (Leukotriene C4 synthase) | IC50 (Carbonic anhydrase 2) | IC50 [13] | Ki [13]
